# Assay results as given in PubChem BioAssay AID489032 (Sanford-Burnham Center for Chemical Genomics, 2010).
# Activity calls are given as the source filed them. No rule for the calls is given here.
# System: UPR adaptive arm reporter cells, luciferase luminescence
# Assay: activators of adaptive UPR signalling, dose response, cell-based, luciferase luminescence (AID 489032)
row,SMILES,EC50
1,Cc1cc(N2CCN(c3ccc([N+](=O)[O-])c4cccnc34)CC2)c2ccccc2n1,21.4 µM (inactive)
2,CCc1ccc2[nH]c3nc(SCC(=O)NNC(=O)c4ccc(C(C)(C)C)cc4)nnc3c2c1,32.3 µM (inactive)
3,CCC/C(=N/Nc1ccc(Cl)cc1)c1cnnc(-c2ccccc2)n1,> 80 µM (inactive)
4,CCN=C1S/C(=C\c2cn(CC(=O)NCc3ccco3)c3ccccc23)C(=O)N1CC,> 80 µM (inactive)
5,CCOC(=O)C1=C(O)/C(=C/c2cn(CC(=O)NCC3CCCO3)c3ccccc23)SC1=Nc1ccc(C)cc1 (stereo not drawn),> 80 µM (inactive)
6,NS(=O)(=O)c1ccc(N/N=C/c2cn(-c3ccccc3)nc2-c2cccs2)c([N+](=O)[O-])c1,> 80 µM (inactive)
7,CCOc1ccc(S(=O)(=O)Nc2cccc(C(=O)NCC3(N4CCCCC4)CCCCC3)c2)cc1,15.3 µM
8,CCOc1ccc2nc(NC3=NC(c4ccc(OC)cc4)CC(=O)N3)nc(C)c2c1 (stereo not drawn),15.6 µM
9,COc1ccc2nc(/C(C#N)=C\c3ccc(Oc4ccc([N+](=O)[O-])cn4)cc3)[nH]c2c1,> 80 µM (inactive)
10,O=C(Nc1ccc(Oc2ccc(NC(=O)Nc3ccccc3Cl)cc2)cc1)Nc1ccccc1Cl,> 80 µM (inactive)
11,COc1ccc2cc(C)c3nnc(SCC(=O)Nc4nc(-c5ccc(F)cc5)cs4)n3c2c1,23.7 µM (inactive)
12,COc1ccccc1CCNC(=O)C1CCN(c2nnc(C)c3c(C)n(-c4ccc(C)cc4)nc23)CC1,17.8 µM
13,CCOc1ccc(C(=O)Nc2ccc(NC(=O)c3ccco3)c(Cl)c2)cc1Cl,> 80 µM (inactive)
14,Cc1cc(C)c2c(c1)/C(=N/Nc1ccc(S(N)(=O)=O)cc1[N+](=O)[O-])CCC2,> 80 µM (inactive)
15,C#CCn1c(=NC(=O)c2ccc(S(=O)(=O)N3CCc4ccccc4C3)cc2)sc2cc(S(N)(=O)=O)ccc21,> 80 µM (inactive)
16,CC1CCCN(c2ccc(C(=O)NCc3cccs3)cn2)C1 (stereo not drawn),> 80 µM (inactive)
17,Cc1cc(C)c2c(CCl)cc(=O)oc2c1,> 80 µM (inactive)
18,O=C(COC(=O)c1ccc2[nH]c3c(c2c1)CCCC3)Nc1ccccc1Cl,> 80 µM (inactive)
19,CCCNC(=O)/C(C#N)=C1\N=C(NC(=O)c2cccs2)c2ccccc21,> 80 µM (inactive)
20,Cc1[nH]c2ccccc2c1/C=C/c1nc2ccccc2c(=O)n1-c1ccc([N+](=O)[O-])cc1,> 80 µM (inactive)
21,O=C(Nc1ccc(-c2nc3cc(NC(=O)c4cccs4)ccc3o2)cc1)c1cccs1,4.31 µM
22,COc1ccc(C2CC(c3c(-c4ccccc4)c4cc(Cl)ccc4[nH]c3=O)=NN2S(C)(=O)=O)cc1 (stereo not drawn),> 80 µM (inactive)

row,SMILES,EC50
1,O=C(CSc1nc2ccccc2c(=O)n1-c1ccccc1)N1CCc2ccccc21,> 80 µM (inactive)
2,Cc1nc(Nc2nc(-c3ccccc3)cc(=O)[nH]2)nc2ccccc12,11.9 µM
3,Brc1cc(Br)c2ncnc(N3CCCCC3)c2c1,44.5 µM (inactive)
4,O=C(CSCc1ccc(Cl)cc1)Nc1ccc(-c2nnc(-c3ccccc3)o2)cc1,> 80 µM (inactive)
5,O=C(Nc1ccc(C(F)(F)F)cc1)c1cc(-c2cccnc2)nc2ccc(Br)cc12,15.6 µM
6,COc1ccc(-c2nnc(SCC(=O)Nc3sc4c(c3C#N)CCCC4)n2-c2ccccc2)cc1,> 80 µM (inactive)
7,NC1=NC[C@@H](CC2CCCCC2)N1CCc1cc(C(F)(F)F)cc(C(F)(F)F)c1,> 80 µM (inactive)
8,Cc1nc(NC(=O)c2cc3c(C)nn(-c4ccccc4)c3s2)sc1C(=O)Nc1ccccc1,41.3 µM (inactive)
9,O=C1c2cccc3cc(Br)cc(c23)C(=O)N1Nc1ccc(Br)cc1,> 80 µM (inactive)
10,O=C(N/N=C/c1ccccc1Cl)c1[nH]c2ccc(Br)cc2c1-c1ccccc1,32.9 µM (inactive)
11,CC(C)c1ccc(/C=C/C(=O)Nc2nc3ccc([N+](=O)[O-])cc3s2)cc1,> 80 µM (inactive)
12,CC(C)c1ccc(C2C3=C(COC3=O)Nc3cc4c(cc32)OCO4)cc1 (stereo not drawn),48.9 µM (inactive)
13,Cc1ccc(-n2nc3c(N4CCC(C(=O)NCCc5ccccc5C)CC4)nnc(C)c3c2C)cc1,> 80 µM (inactive)
14,Cc1cc(C)c2c(c1)/C(=c1/sc3n(c1=O)CN(c1ccccc1)CN=3)C(=O)N2,19.2 µM
15,COc1ccc(NC(=O)CSc2nc3ccc(Nc4nc(N5CCOCC5)nc(N5CCOCC5)n4)cc3s2)cc1,> 80 µM (inactive)
16,Cc1nc2ccccc2n1-c1nc(-c2ccco2)cc(C(F)(F)F)n1,> 80 µM (inactive)
17,O=C(Nc1ccc([N+](=O)[O-])cc1)C(Cc1ccccc1)N1C(=O)c2cccc3cccc(c23)C1=O (stereo not drawn),27 µM (inactive)
18,CCCCCc1nc2c(c(=O)c3ccccc3n2C)c(=O)n1C1CCCCCC1,> 80 µM (inactive)
19,Cc1ccc(NC(=O)c2c(C)nc3sc(C(=O)NC4CCCC4)c(N)c3c2-c2ccco2)c(C)c1,48.4 µM (inactive)
20,CC(=O)c1cccc(Nc2nc(-c3cccc([N+](=O)[O-])c3)cs2)c1,> 80 µM (inactive)
21,OCCCn1c(C2CCCN2c2nc(-c3ccc(Cl)cc3)cs2)nc2cc(Cl)c(N3CCCCC3)cc21 (stereo not drawn),> 80 µM (inactive)
22,N#C/C(=C\c1ccc(N2CCCC2)c([N+](=O)[O-])c1)c1nc2ccccc2[nH]1,> 80 µM (inactive)

row,SMILES,EC50
1,O=C(NC1CCCCC1)c1cccc2c1C(=O)c1ccc(-c3ccc(OC(F)(F)F)cc3)cc1S2(=O)=O,> 80 µM (inactive)
2,CC(C)(C)C(=O)NC(=S)NNC(=O)C(c1ccccc1)c1ccccc1,27 µM (inactive)
3,Cc1ccc(/C=C/C(=O)c2cc(Br)ccc2OC(=O)c2ccco2)cc1,37.9 µM (inactive)
4,COc1ccccc1-c1sc2cc3c(cc2c1-c1ccc(OCCN2CCCCC2)cc1)OCO3,> 80 µM (inactive)
5,COc1ccc(-c2csc(NC(=S)NC(=O)/C=C/c3ccccc3)n2)cc1Br,13.2 µM
6,Cc1ccc(C)c(N=Cc2c(O)c3ccccc3oc2=O)c1,37.1 µM (inactive)
7,CCOc1ccc(Cn2c3ccc(OC)cc3c3nc4ccccc4nc32)cc1OC,> 80 µM (inactive)
8,O=c1oc(CCCO)cc2ccc(/C=C/c3cccc([N+](=O)[O-])c3)cc12,36.8 µM (inactive)
9,Cc1cc(C)c(NC(=O)CSc2nc(COc3ccccc3)nc3ccccc23)c(C)c1,> 80 µM (inactive)
10,N#Cc1ccccc1NC(=O)COc1c(Br)cc(Br)c2cccnc12,> 80 µM (inactive)
11,COc1ccc(-c2csc(C3=C(O)CN(Cc4ccc(Cl)cc4)C3=N)n2)cc1OC,> 80 µM (inactive)
12,Cc1c(O)cc2c(c1O)C(=O)CC(c1ccccc1)O2 (stereo not drawn),10.8 µM
13,N#Cc1c(-c2ccc3c(c2)OCO3)ccn2nc(-c3cccc(C(F)(F)F)c3)nc12,> 80 µM (inactive)
14,NC(=S)N/N=C/c1ccc(C23CC4CC(CC(C4)C2)C3)cc1,40 µM (inactive)
15,COc1ccccc1NC(=O)c1cc2c(CO)cnc(C)c2oc1=Nc1ccccc1,25.7 µM (inactive)
16,CCCCNC(=O)c1ccc(Cn2c(=S)[nH]c3c([nH]c4ccc(OC)cc43)c2=O)cc1,> 80 µM (inactive)
17,O=C(NN1C(=O)/C(=C/c2ccc(O)c(O)c2)SC1=S)c1ccccc1,> 80 µM (inactive)
18,CC1=CC(C)[C@H](/C=N/n2c(=O)[nH]c3c([nH]c4ccc(Br)cc43)c2=O)C(C)C1 (stereo partly drawn),> 80 µM (inactive)
19,CCOC(=O)/C=c1\s/c(=C\c2ccc3cc(OC)ccc3c2)c(=O)n1CC(=O)NCC1CCCO1 (stereo not drawn),54.1 µM (inactive)
20,O=C(NCCC1=CCCCC1)C(=O)NCC(c1ccco1)N1CCN(c2ccc(F)cc2)CC1 (stereo not drawn),> 80 µM (inactive)
21,COc1cc(N(C(=O)Cc2cccs2)C(C(=O)NC2CCCCC2)c2ccc(C)cc2)ccc1-n1cnnn1 (stereo not drawn),> 80 µM (inactive)
22,Cc1ccc(Cc2cnc(NC(=O)/C(C#N)=C/c3ccc(-c4ccc([N+](=O)[O-])cc4)o3)s2)cc1,9.69 µM

row,SMILES,EC50
1,CCCn1c(SCc2nc3sc(C)c(C)c3c(=O)[nH]2)nc2ccccc2c1=O,72 µM (inactive)
2,Cc1cc(NC(=O)CSc2nc3cc(Cl)ccc3c(=O)n2Cc2ccco2)no1,> 80 µM (inactive)
3,CCNC(=O)c1c(NC(=O)c2cc(-c3cc(C)ccc3O)n[nH]2)sc2c1CCCC2,> 80 µM (inactive)
4,CCOC(=O)c1cc(-c2ccccc2)sc1NC(=O)c1ccc(OC)cc1,> 80 µM (inactive)
5,CCc1ccc(-n2c(SCC(=O)c3ccc4c(c3)NC(=O)CO4)nc3ccccc3c2=O)cc1,> 80 µM (inactive)
6,CCCCOc1ccccc1NC(=O)Cn1c(-c2nonc2N)nc2ccccc21,22 µM (inactive)
7,CCCCN(CC)S(=O)(=O)c1ccc(C(=O)N=c2sc3cc(NC(C)=O)ccc3n2C)cc1,5.4 µM
8,CCc1ccc(-c2nc(CN3CCC(C(=O)NCCN(CC)c4ccccc4)CC3)c(C)o2)cc1,> 80 µM (inactive)
9,COc1ccc(C(=O)/C=C/c2ccc(O)cc2)c(O)c1C/C=C(\C)CCC=C(C)C,> 80 µM (inactive)
10,Cc1cc(NC(=O)CSc2ccc(-c3nc4cc(C)c(C)cc4[nH]3)cn2)no1,> 80 µM (inactive)
11,CCOC(=O)c1cc(NC(=O)c2ccc(Cl)cc2)c(=O)n2c1oc1ccc(Cl)cc12,> 80 µM (inactive)
12,Cc1ccc(N=Cc2c(O)n(-c3ccc4c(c3)OCO4)c(=O)c3ccccc23)cc1,> 80 µM (inactive)
13,O=[N+]([O-])c1ccc(N/N=C/c2cccc(O)c2O)c(S(=O)(=O)N2CCOCC2)c1,21.2 µM (inactive)
14,O=C(Nc1ccc([N+](=O)[O-])cc1)c1nc[nH]c1C(=O)NC1CCCCC1,> 80 µM (inactive)
15,CCCOC(=O)c1cccc(Nc2nc(-c3cccnc3)nc3ccccc23)c1,> 80 µM (inactive)
16,Cc1ccc(-n2nc3cc(C)c(NC(=S)NC(=O)/C=C/c4ccco4)cc3n2)cc1,35.9 µM (inactive)
17,O=[N+]([O-])c1cccc(/C=C/c2ccc3cccc(O)c3n2)c1,28.7 µM (inactive)
18,CCOC(=O)c1nnc(-c2ccc(C)cc2)nc1Oc1ccccc1Cl,> 80 µM (inactive)
19,O=C(Nc1ccc(NC(=O)c2sc3ccccc3c2Cl)cc1Cl)c1ccco1,22 µM (inactive)
20,COc1ccccc1Nc1nnc(SCC(=O)NC(=O)Nc2ccc3c(c2)OCCO3)s1,> 80 µM (inactive)
21,C=CCOc1ccc(/C=N/N2C(=O)C(CC(=O)Nc3ccc(F)cc3F)SC2=NC)cc1 (stereo not drawn),> 80 µM (inactive)
22,Cc1ccc(-c2nn(CC(=O)NCc3cc(-c4nn(C)c(=O)c5ccccc45)ccc3C)c(=O)c3ccccc23)cc1,> 80 µM (inactive)
